Results on 32 compounds are retold here after patent publication US20170291890A1 (Epizyme, Inc., priority 2014, published 2017).

The term IC50 denotes the point on the concentration scale where inhibition reaches its midpoint.

The experiment deals with T1, KDM5A (Homo sapiens, UniProt P29375).
T1 construct: C-terminal FLAG-tagged KDM5A^1-1090 was purchased from BPS Biosciences; FLAG (C); purchased BPS Biosciences
T1 sequence (P29375 1-1090): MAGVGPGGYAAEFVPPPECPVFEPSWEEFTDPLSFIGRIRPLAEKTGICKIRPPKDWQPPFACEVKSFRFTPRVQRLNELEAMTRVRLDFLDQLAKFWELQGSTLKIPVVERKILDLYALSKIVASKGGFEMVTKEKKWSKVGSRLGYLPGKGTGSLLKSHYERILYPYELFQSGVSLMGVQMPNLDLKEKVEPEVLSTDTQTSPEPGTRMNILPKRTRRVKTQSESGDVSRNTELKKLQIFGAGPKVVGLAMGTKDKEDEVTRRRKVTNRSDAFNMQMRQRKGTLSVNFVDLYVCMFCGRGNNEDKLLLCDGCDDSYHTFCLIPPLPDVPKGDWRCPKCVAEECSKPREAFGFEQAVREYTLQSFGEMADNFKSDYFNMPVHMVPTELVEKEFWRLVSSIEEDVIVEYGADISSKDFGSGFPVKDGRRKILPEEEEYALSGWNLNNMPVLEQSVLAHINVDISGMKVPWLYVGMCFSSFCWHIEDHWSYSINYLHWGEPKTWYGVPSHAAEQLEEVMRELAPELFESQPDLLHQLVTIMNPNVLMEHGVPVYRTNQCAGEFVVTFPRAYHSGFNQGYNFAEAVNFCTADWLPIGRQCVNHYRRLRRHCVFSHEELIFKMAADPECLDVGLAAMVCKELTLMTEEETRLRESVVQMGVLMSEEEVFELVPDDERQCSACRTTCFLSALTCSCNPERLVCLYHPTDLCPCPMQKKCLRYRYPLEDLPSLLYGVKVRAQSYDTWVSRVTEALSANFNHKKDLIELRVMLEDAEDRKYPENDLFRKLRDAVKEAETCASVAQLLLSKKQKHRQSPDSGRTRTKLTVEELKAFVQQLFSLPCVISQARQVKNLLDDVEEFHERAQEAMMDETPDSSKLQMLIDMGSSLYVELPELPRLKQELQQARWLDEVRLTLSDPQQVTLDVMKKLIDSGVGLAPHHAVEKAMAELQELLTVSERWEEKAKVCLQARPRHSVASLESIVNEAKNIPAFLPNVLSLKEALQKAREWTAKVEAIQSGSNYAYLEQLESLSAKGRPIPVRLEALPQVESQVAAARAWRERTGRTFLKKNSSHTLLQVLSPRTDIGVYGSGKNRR
As to the kind of experiment: KDM5A Assay (SAMDI mass spectrometry demethylase assay). It counts as biochemical. The following applies: C-terminal FLAG-tagged KDM5A 1-1090; class symbols; read-out: 5A IC50. As for the experimental part:
C-terminal FLAG-tagged KDM5A^1-1090 was purchased from BPS Biosciences. Peptides were synthesized by BioPeptide and all other reagents were purchased from Sigma-Aldrich at the highest level of purity possible. Assays were performed in a 50 μL volume in 384-well V-bottom polypropylene microplates (Greiner) at 25° C. Optimized 1× assay buffer was 50 mM HEPES (pH=8.0), 100 μM sodium ascorbate, 20 mM NaCl, 10 μM ammonium iron sulfate, 1 mM tris(2-carboxyethyl)phosphine (TCEP), 0.002% Tween-20, and 0.005% BSG. For compound screening, 35 μL of […] (final concentration, f.c.=20 nM) was added using a Multidrop Combi and preincubated with 1 μL of test compound (f.c.=10 μM) for 30 minutes and subsequently 15 μL of peptide with the following sequence NH2-ART[Kme-3]QTARKSTGGKA[K-Ahx-Biot]-amide (f.c.=250 nM) and 2-oxoglutarate (f.c.=15 μM) was added by Multidrop Combi to begin the reaction. Reactions proceeded for 150 minutes and were stopped by the addition of 5 μL of formic acid (f.c.=0.5%) using a Multidrop Combi and then analyzed by SAMDI Tech Inc.
SAMDI Tech analyzed all reactions using self-assembled monoloayer desorption/ionization technology as previously described (Gerard-Levin Z A, Scholle M D, Eisenberg A H, et al.: High-throughput screening of small molecule libraries using SAMDI mass spectrometry. ACS Comb Sci 2011; 13:347-350). Briefly, a 2 μL sample of the stopped demethylase reactions were transferred to a SAMDI array coated with 384 biotin-neutravidin spots using a 384-channel pipet station. The SAMDI arrays were incubated for 1 h in a humidified chamber, followed by washing of the surface with deionized ultra-filtered water (DIUF) and drying under nitrogen. A matrix of 30 mg/ml 2′,4′,6′-Trihydroxyacetophenone monohydrate (THAP) in acetone was applied using a TPP Mosquito 1.2 μL tip by dispensing 50 nL on each of the 384 spots on the array. SAMDI-MS was run using acquisition method ReflectorPositiveUTX. The % conversion of substrate to product was calculated using the AUC of the substrate and product peptide peaks.
An IC50 value was determined by contacting various concentrations of a test compound with one of the KDM4A, KDM4C or KDMSC enzyme constructs and plotting a dose-response curve which associates the amount of inhibition of the enzyme relative to the concentration of the test compound. From the curve, the IC50 value (which represents the concentration of the test compound necessary to inhibit maximal enzymatic activity by 50%) was determined. Additionally, the slope of the linear range of the plotted curve, which indicates the speed with which the curve rises between the minimum and maximum, was calculated.
As for `Cc1nn(C2CCCNCC2)cc1Nc1cnccc1C(=O)O` (single isomer, unassigned) [Compound 114], the IC50 lay in the range of 100 to 1000 nM. In the case of `Cc1nn(C2CCCNCC2)cc1Nc1cnccc1C(=O)O` (single isomer, unassigned) [Compound 116] it was 100 to 1000 nM; in that of `Cn1ncc(-c2ccccc2)c1Nc1cnccc1C(=O)O` [Compound 1], 1000 to 10000 nM. Consider `Cc1cn(-c2ccccc2)c(Nc2cnccc2C(=O)O)n1` [Compound 2], for which the IC50 was 1000 to 10000 nM.

Regarding `Cn1cc(-c2ccccc2)c(Nc2cnccc2C(=O)O)n1` [Compound 3], the IC50 was 1000 to 10000 nM. In the case of `Cn1nc(-c2ccccc2)cc1Nc1cnccc1C(=O)O` [Compound 6], the IC50 lay within 1 to 100 nM.

For the compound `Cn1cc(-c2ccc(F)cc2)c(Nc2cnccc2C(=O)O)n1` [Compound 7, 3-((4-(4-Fluorophenyl)-1-methyl-1H-pyrazol-3-yl)amino) isonicotinic acid], the IC50 fell in the range of 100 to 1000 nM.

Regarding `Cn1ncc(-c2ccc(F)cc2)c1Nc1cnccc1C(=O)O` [Compound 8, 3-((4-(4-fluorophenyl)-1-methyl-1H-pyrazol-5-yl)amino) isonicotinic acid], the IC50 is 10000 to 100000 nM. As for `Cn1cc(-c2cccc(F)c2)c(Nc2cnccc2C(=O)O)n1` [Compound 9, 3-((4-(3-Fluorophenyl)-1-methyl-1H-pyrazol-3-yl)amino) isonicotinic acid], the IC50 fell in the range of 100 to 1000 nM. On to `Cn1ncc(-c2cccc(F)c2)c1Nc1cnccc1C(=O)O` [Compound 10, 3-((4-(3-Fluorophenyl)-1-methyl-1H-pyrazol-5-yl)amino) isonicotinic acid], for which the IC50 lay within 10000 to 100000 nM. On to `Cn1cc(-c2ccccc2F)c(Nc2cnccc2C(=O)O)n1` [Compound 11, 3-((4-(2-Fluorophenyl)-1-methyl-1H-pyrazol-3-yl)amino) isonicotinic acid], for which the IC50 lay in the range of 1000 to 10000 nM. The same measure for `Cn1ncc(-c2ccccc2F)c1Nc1cnccc1C(=O)O` [Compound 12, 3-((4-(2-fluorophenyl)-1-methyl-1H-pyrazol-5-yl)amino) isonicotinic acid]: 100 to 1000 nM; for `Cn1cc(Nc2cnccc2C(=O)O)c(-c2ccccc2)n1` [Compound 13, 3-((1-methyl-3-phenyl-1H-pyrazol-4-yl)amino) isonicotinic acid]: 1000 to 10000 nM.

With `O=C(O)c1ccncc1Nc1nn(CCN2CCC(F)(F)CC2)cc1-c1ccccc1` [Compound 14, 3-((1-(2-(4,4-Difluoropiperidin-1-yl)ethyl)-4-phenyl-1H-pyrazol-3-yl)amino)isonicotinic acid], the IC50 was in the range of 1 to 100 nM.

As to `O=C(O)c1ccncc1Nc1c(-c2ccccc2)cnn1CCN1CCC(F)(F)CC1` [Compound 15, 3-((1-(2-(4,4-difluoropiperidin-1-yl)ethyl)-4-phenyl-1H-pyrazol-5-yl)amino)isonicotinic acid], the IC50 fell in the range of 1000 to 10000 nM. Consider `Cc1n[nH]c(C)c1Nc1cnccc1C(=O)O` [Compound 16, 3-((3,5-Dimethyl-1H-pyrazol-4-yl)amino)isonicotinic acid], for which the IC50 lay in the range of 10000 to 100000 nM. For `O=C(O)c1ccncc1Nc1cn(CCN2CCC(F)(F)CC2)nc1-c1ccccc1` [Compound 17, 3-((1-(2-(4,4-Difluoropiperidin-1-yl)ethyl)-3-phenyl-1H-pyrazol-4-yl)amino)isonicotinic acid], the IC50 is 100 to 1000 nM. In the case of `O=C(O)c1ccncc1Nc1cnn(CCN2CCC(F)(F)CC2)c1-c1ccccc1` [Compound 18, 3-((1-(2-(4,4-difluoropiperidin-1-yl)ethyl)-5-phenyl-1H-pyrazol-4-yl)amino)isonicotinic acid] it was 1000 to 10000 nM. In the case of `Cc1nn(-c2ccccc2)cc1Nc1cnccc1C(=O)O` [Compound 19, 3-((3-Methyl-1-phenyl-1H-pyrazol-4-yl)amino)isonicotinic acid] it was 1 to 100 nM; in that of `Cc1c(Nc2cnccc2C(=O)O)cnn1-c1ccccc1` [Compound 20, 3-((5-methyl-1-phenyl-1H-pyrazol-4-yl)amino)isonicotinic acid], 1000 to 10000 nM; in that of `O=C(O)c1ccncc1Nc1cc(-c2ccccc2)nn1-c1ccccc1` [Compound 21, 3-((1,3-Diphenyl-1H-pyrazol-5-yl)amino)isonicotinic acid], 100 to 1000 nM. For the compound `CC(C)n1nc(-c2ccccc2)cc1Nc1cnccc1C(=O)O` [Compound 22, 3-((1-Isopropyl-3-phenyl-1H-pyrazol-5-yl)amino)isonicotinic acid], the IC50 lay within 100 to 1000 nM. With `O=C(O)c1ccncc1Nc1cc(-c2ccccc2)nn1C1CCOCC1` [Compound 23, 3-((3-Phenyl-1-(tetrahydro-2H-pyran-4-yl)-1H-pyrazol-5-yl)amino)isonicotinic acid], the concentration for half-maximal inhibition (IC50) lay within 1000 to 10000 nM.

Regarding `Cn1nc(-c2ccc(Cl)cc2)cc1Nc1cnccc1C(=O)O` [Compound 24, 3-((3-(4-Chlorophenyl)-1-methyl-1H-pyrazol-5-yl)amino) isonicotinic acid], the IC50 lay in the range of 1 to 100 nM. Take `Cn1nc(-c2cccc(Cl)c2)cc1Nc1cnccc1C(=O)O` [Compound 25, 3-((3-(3-chlorophenyl)-1-methyl-1H-pyrazol-5-yl)amino) isonicotinic acid]: the IC50 lay in the range of 1 to 100 nM. For `NCCn1nc(-c2ccccc2)cc1Nc1cnccc1C(=O)O` [Compound 26], the 50% inhibitory concentration (IC50) lay within 1000 to 10000 nM.

As to `COCCn1nc(-c2ccccc2)cc1Nc1cnccc1C(=O)O` [Compound 27, 3-((1-(2-Methoxyethyl)-3-phenyl-1H-pyrazol-5-yl)amino) isonicotinic acid], the IC50 was in the range of 100 to 1000 nM.

With `Cc1c(Nc2cnccc2C(=O)O)cnn1Cc1ccccc1` [Compound 33, 3-((1-benzyl-5-methyl-1H-pyrazol-4-yl)amino)isonicotinic acid], the IC50 was in the range of 100 to 1000 nM.

Take `CN1CCN(CCn2cc(-c3ccccc3)c(Nc3cnccc3C(=O)O)n2)CC1` [Compound 34, 3-((1-(2-(4-Methylpiperazin-1-yl)ethyl)-4-phenyl-1H-pyrazol-3-yl)amino)isonicotinic acid]: the IC50 was 10000 to 100000 nM.

With `CN1CCN(CCn2ncc(-c3ccccc3)c2Nc2cnccc2C(=O)O)CC1` [Compound 35, 3-((1-(2-(4-methylpiperazin-1-yl)ethyl)-4-phenyl-1H-pyrazol-5-yl)amino)isonicotinic acid], the IC50 lay within 1 to 100 nM.

Consider `CCn1nc(-c2ccccc2)cc1Nc1cnccc1C(=O)O` [Compound 36, 3-((1-Ethyl-3-phenyl-1H-pyrazol-5-yl)amino)isonicotinic acid], for which the IC50 lay within 1 to 100 nM. Take `N[C@H]1CC[C@@H](n2nc(-c3ccccc3)cc2Nc2cnccc2C(=O)O)CC1` [Compound 37, 3-((1-((cis)-4-aminocyclohexyl)-3-phenyl-1H-pyrazol-5-yl)amino)isonicotinic acid]: the IC50 is 1000 to 10000 nM.
